Measured values taken from US6642355B2, “Endothelin-antagonizing peptide” (priority 1991, dated 2003).
Read-outs that look alike come from different tables or passages of the source. Bridge positions count the residues as written; N and C are the ends. Square brackets hold non-standard residues; d marks the D form. Ends that are not written are not given here. Peptide text beside a SMILES is read from it. 2Nal = N[C@@H](Cc1ccc2ccccc2c1)C(=O)O

Tests used:
endothelin receptor [1] = molecular target: T1, endothelin receptor (Bos taurus, UniProt P28088); assay: Endothelin receptor-antagonizing effect: 125I-endothelin-1 binding to bovine cerebellar tissue membrane fraction
T1 construct: from tissue; host or cells: bovine cerebellar membrane fraction
T1 sequence (P28088 27-441): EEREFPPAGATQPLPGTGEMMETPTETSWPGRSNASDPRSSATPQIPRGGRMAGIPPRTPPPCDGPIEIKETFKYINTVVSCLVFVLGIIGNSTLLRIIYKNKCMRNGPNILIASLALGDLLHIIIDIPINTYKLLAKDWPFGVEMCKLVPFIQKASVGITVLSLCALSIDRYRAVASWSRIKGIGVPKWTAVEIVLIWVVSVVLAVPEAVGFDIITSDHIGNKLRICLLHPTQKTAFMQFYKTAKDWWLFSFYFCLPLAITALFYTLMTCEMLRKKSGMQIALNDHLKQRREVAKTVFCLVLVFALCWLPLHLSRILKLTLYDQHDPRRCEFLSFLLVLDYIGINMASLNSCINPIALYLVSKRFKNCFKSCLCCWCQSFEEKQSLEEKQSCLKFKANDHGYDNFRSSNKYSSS

endothelin-3 = assay: Effect against airway contraction due to endothelin in anesthetized guinea pigs; assay type: in vivo; conditions: guinea pig; for Rate of inhibition (%) of airway contraction, earlier phase 30 seconds: 30 seconds after endothelin-3; for Rate of inhibition (%) of airway contraction, later phase 3 minutes: 3 minutes after endothelin-3
Protocol: The in vivo effect of the compounds according to the present invention against airway contraction was evaluated according to a slightly modified version of the method of C. Touvay et al. described in European Journal of Pharmacology, 176, 23-33, 1990. That is, male Hartley guinea pigs weighing 350 to 550 grams each which had been previously β-blocked by intravenous injection of propranolol (3 mg/kg) were anesthetized, bronchial cannula were inserted therein and fixed, and connected to an artificial respirator. Next, spontaneous breathing was stopped with 10 mg/kg Gallamine triethiodide (product of sigma Co.), administered intravenously after which artificial respiration was initiated at a determined rate. A respiration volume measuring device was connected to the bronchial cannula bypass, and the change in the air flow was measured as an indication of airway contraction. Endothelin-3 (1.5 μmol/l; product of Peptide Institute, Inc.) was intravenously injected at a dose of 0.1 ml per 100 g body weight. Airway contraction (air flow increase) was observed immediately after injection, and was followed by a diphasic airway contraction reaction with an early and late phase which peaked at 30 seconds and 3 minutes, respectively.
Rate of inhibition (%)=(1−b/a)×100 a: Airway contraction without injection of Compound (I-1) (control) b: Airway contraction with injection of Compound (I-1)

endothelin receptor [2] = molecular target: T2, endothelin receptor (Bos taurus, UniProt P21450); assay: Endothelin receptor-antagonizing activity: 125I-endothelin-1 binding to bovine lung membrane fraction with […] Compound (I-1) added
T2 construct: the suspension was used as the membrane fraction liquid; from tissue
T2 sequence (P21450 21-427): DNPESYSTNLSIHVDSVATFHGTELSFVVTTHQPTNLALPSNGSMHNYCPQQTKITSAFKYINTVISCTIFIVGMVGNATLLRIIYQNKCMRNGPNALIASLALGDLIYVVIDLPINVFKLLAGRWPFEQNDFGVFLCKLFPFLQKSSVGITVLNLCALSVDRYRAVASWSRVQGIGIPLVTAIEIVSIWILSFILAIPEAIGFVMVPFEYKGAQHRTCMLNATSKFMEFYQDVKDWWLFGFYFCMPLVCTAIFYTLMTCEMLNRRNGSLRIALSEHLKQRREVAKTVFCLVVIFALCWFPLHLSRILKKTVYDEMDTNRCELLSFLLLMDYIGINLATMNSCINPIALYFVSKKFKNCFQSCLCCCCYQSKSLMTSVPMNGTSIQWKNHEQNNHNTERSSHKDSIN
Protocol: Bovine lung tissue was homogenized at 4° C. using POLYTRON (type PT10/35, manufactured by Kinematica GmbH Co.) in a buffer solution A (pH 8.3) comprising 1 mM NaHCO3, 5 mM ethylenediaminetetraacetic acid, 5 μg/ml leupeptin, 5 μg/ml pepstatin A and 40 μM phenylmethylsulfonyl fluoride.
The inhibition rate against endothelin receptor binding activity was calculated according to the following equation.
Inhibition rate=(C−A/C−B)=100 (%)

[3] = molecular target: endothelin receptor of bovine cerebellar tissue (membrane fraction) (bovine); assay: 125I-endothelin-1 displacement, bovine cerebellar membrane fraction
[4] = molecular target: endothelin receptor of bovine cerebellar tissue (membrane fraction) (bovine); assay: as above; remark: listed apart in the source
[5] = molecular target: endothelin receptor of bovine lung tissue (membrane fraction) (bovine); assay: 125I-endothelin-1 displacement, bovine lung membrane fraction with 1.5 ug/ml Compound (I-1) added

CC[C@H](C)[C@H](NC(=O)[C@H](CC(=O)O)NC(=O)[C@H](CC(C)C)NC(=O)[C@H](Cc1c[nH]cn1)NC(=O)[C@H](C)NC(=O)[C@H](Cc1ccccc1)NC(=O)[C@H](Cc1ccc(O)cc1)NC(=O)[C@@H](NC(=O)[C@H](Cc1c[nH]c2ccccc12)NC(=O)[C@H](CC(=O)O)NC(=O)[C@@H]1CCCN1C(=O)[C@H](C)NC(=O)[C@@H](NC(=O)CNC(=O)[C@H](Cc1c[nH]cn1)NC(=O)[C@H](Cc1c[nH]c2ccccc12)NC(=O)[C@H](CC(=O)O)NC(=O)CN)[C@@H](C)O)C(C)C)C(=O)N[C@H](C(=O)N[C@@H](Cc1c[nH]c2ccccc12)C(=O)O)[C@@H](C)CC [Compound I-43]
IC50 (endothelin receptor [1]): 0.63 nM

C[C@@H]1NC(=O)[C@H]([C@@H](C)O)NC(=O)CNC(=O)[C@H](Cc2c[nH]cn2)NC(=O)[C@H](Cc2c[nH]c3ccccc23)NC(=O)[C@H](CC(N)=O)NC(=O)CNC(=O)C[C@@H](C(=O)N[C@@H](Cc2c[nH]c3ccccc23)C(=O)N[C@@H](Cc2ccccc2)C(=O)N[C@@H](Cc2ccccc2)C(=O)N[C@@H](CC(N)=O)C(=O)N[C@@H](Cc2ccc(O)cc2)C(=O)N[C@@H](Cc2ccc(O)cc2)C(=O)N[C@@H](Cc2c[nH]c3ccccc23)C(=O)O)NC(=O)[C@@H]2CCCN2C1=O [Compound I-1]
Rate of inhibition (%) of airway contraction, earlier phase 30 seconds (endothelin-3; 0.1 mg/kg i.v.): 12.5% | Rate of inhibition (%) of airway contraction, later phase 3 minutes (endothelin-3; 0.1 mg/kg i.v.): 44.0% | Rate of inhibition (%) of airway contraction, earlier phase 30 seconds (endothelin-3; 0.3 mg/kg i.v.): 46.0% | Rate of inhibition (%) of airway contraction, later phase 3 minutes (endothelin-3; 0.3 mg/kg i.v.): 52.7% | Rate of inhibition (%) of airway contraction, earlier phase 30 seconds (endothelin-3; 1.0 mg/kg i.v.): 91.8% | Rate of inhibition (%) of airway contraction, later phase 3 minutes (endothelin-3; 1.0 mg/kg i.v.): 78.2%

C[C@@H]1NC(=O)[C@H]([C@@H](C)O)NC(=O)CNC(=O)[C@H](Cc2c[nH]cn2)NC(=O)[C@H](Cc2c[nH]c3ccccc23)NC(=O)[C@H](CC(N)=O)NC(=O)CNC(=O)C[C@@H](C(=O)N[C@@H](Cc2c[nH]c3ccccc23)C(=O)N[C@@H](Cc2ccccc2)C(=O)N[C@@H](Cc2ccccc2)C(=O)N[C@@H](CC(N)=O)C(=O)N[C@@H](Cc2ccc(O)cc2)C(=O)N[C@@H](Cc2ccc(O)cc2)C(=O)N[C@@H](Cc2c[nH]c3ccccc23)C(=O)OCc2ccccc2)NC(=O)[C@@H]2CCCN2C1=O [Compound I-47]
IC50 (endothelin receptor [1]; bovine cerebellar tissue membrane fraction): 140 nM | IC50 (endothelin receptor [2]): > 470 nM

C[C@@H]1NC(=O)[C@H]([C@@H](C)O)NC(=O)CNC(=O)[C@H](Cc2c[nH]cn2)NC(=O)[C@H](Cc2c[nH]c3ccccc23)NC(=O)[C@H](CC(N)=O)NC(=O)CNC(=O)C[C@@H](C(=O)N[C@@H](Cc2c[nH]c3ccccc23)C(=O)N[C@@H](CC(N)=O)C(=O)N[C@@H](Cc2ccc(O)cc2)C(=O)N[C@@H](Cc2ccc(O)cc2)C(=O)N[C@@H](Cc2c[nH]c3ccccc23)C(=O)O)NC(=O)[C@@H]2CCCN2C1=O [Compound I-32] (GNWHGTAPDWNYYW-OH; lactam N-9)
IC50 (endothelin receptor [1]): > 570 nM

CC[C@H](C)[C@H](NC(=O)[C@H](CC(=O)O)NC(=O)[C@H](CC(C)C)NC(=O)[C@H](Cc1c[nH]cn1)NC(=O)[C@H](C)NC(=O)[C@H](Cc1ccccc1)NC(=O)[C@H](Cc1ccc(O)cc1)NC(=O)[C@@H](NC(=O)[C@H](Cc1c[nH]c2ccccc12)NC(=O)[C@H](CC(=O)O)NC(=O)[C@@H]1CCCN1C(=O)[C@H](C)NC(=O)[C@@H](NC(=O)CNC(=O)[C@H](CCCCN)NC(=O)[C@H](Cc1c[nH]c2ccccc12)NC(=O)[C@H](CC(N)=O)NC(=O)CN)[C@@H](C)O)C(C)C)C(=O)N[C@H](C(=O)N[C@@H](Cc1c[nH]c2ccccc12)C(=O)O)[C@@H](C)CC [Compound I-44]
IC50 (endothelin receptor [1]): 0.29 nM

B1: Compound (I-49) (peptide)
peptide: GNWHGTAPDWFFNYY[2Nal]-OH
modifications: lactam N-9
IC50 [3]: 6.3 nM

B2: Compound (I-20) (peptide)
peptide: GNWHGTAPDWFFNYYWVYFAHLDIIW
modifications: lactam N-9
IC50 [3]: 300 nM

B3: Compound (I-17) (peptide)
peptide: GNWHGTAPDWFFNYY
modifications: lactam N-9
IC50 [3]: 54 nM

B4: Compound (I-3) (peptide)
chain: GNWHGTSPDWFFNYYW
modifications: not checked
IC50 [4]: 5 nM

B5: Compound (I-19) (peptide)
peptide: GNWHGTAPDWFFNYYWWFFNYYW
modifications: lactam N-9
IC50 [3]: 370 nM

B6: Compound (I-18) (peptide)
peptide: GNWHGTAPDWFFNYYWW
modifications: lactam N-9
IC50 [3]: 36 nM

B7: Compound (I-45) (peptide)
peptide: GNWHGTAPDWFFNYY
modifications: lactam Gly 1 N-terminus to Asp 9 side chain; C-terminal carboxyl of Tyr 15 amidated with Trn, 2-(3-indolyl)ethylamine
IC50 [5]: 300 nM | IC50 [3]: 50 nM
